Among the data in patent US20240383830A1, “NOVEL CANNABIDIOL DERIVATIVE, METHOD FOR PREPARING SAME, AND COMPOSITION FOR COGNITIVE FUNCTION I[…]” (priority 2021, published 2024) are IC50 values, retold here.

Where two headings read alike, the source gives them in different places.

Type in all cases: biochemical
Experiment [1] has as its target T1, Monoamine oxidase B (MAO-B) (Homo sapiens, UniProt P27338).
T1 sequence (P27338 1-520): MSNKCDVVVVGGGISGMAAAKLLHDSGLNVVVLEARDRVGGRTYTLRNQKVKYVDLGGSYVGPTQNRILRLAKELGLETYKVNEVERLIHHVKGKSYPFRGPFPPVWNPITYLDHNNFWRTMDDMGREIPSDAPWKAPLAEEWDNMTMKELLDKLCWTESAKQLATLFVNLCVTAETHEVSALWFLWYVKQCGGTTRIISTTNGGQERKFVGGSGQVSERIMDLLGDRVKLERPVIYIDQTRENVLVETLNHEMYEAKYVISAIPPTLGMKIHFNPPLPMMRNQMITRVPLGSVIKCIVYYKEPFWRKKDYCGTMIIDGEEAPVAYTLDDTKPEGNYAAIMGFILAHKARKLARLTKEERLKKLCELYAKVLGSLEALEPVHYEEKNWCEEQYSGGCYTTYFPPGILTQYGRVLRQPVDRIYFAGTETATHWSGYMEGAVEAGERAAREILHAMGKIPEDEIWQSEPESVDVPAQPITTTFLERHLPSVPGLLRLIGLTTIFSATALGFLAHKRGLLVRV
Briefly: Monoamine oxidase B inhibition efficiency (kynuramine fluorescence). Here is the method:
Samples were prepared by dilution with DMSO to give concentrations of 0, 2, 5, 10, 20, 50, 100, and 200 μM of the compound, and 5 μl was dispensed into a 96-well plate. 135 μl of potassium phosphate buffer (0.1 M, 7.4 pH) was dispensed into a 96-well plate. Monoamine oxidase B was prepared at 40 μl/ml, and 50 μl was added to the 96-well plate, mixed with the dispensed compound, and left for 20 minutes. The substrate, kynuramine solution, was prepared at 100 μM, then 10 μl was added to a 96-well plate and left for 10 min. The reaction was stopped by adding 75 μl of NaOH (2N). For the fluorescence blank experiment, potassium phosphate buffer was added instead of monoamine oxidase B to correct the compound-induced fluorescence intensity values.

The target of experiment [2] is Butyrylcholinesterase (BuChE) (Homo sapiens, UniProt P06276). As to the kind of experiment: Butyrylcholinesterase inhibition efficiency (butyrylthiocholine/DTNB absorbance). Here is the method:
(§1) Concentrations of 0, 2, 5, 10, 20, 50, 100, and 200 μM of the synthesized compounds were prepared by dilution in 10% DMSO, 63% phosphate buffer, and 27% tween 80, and 50 μl was dispensed into a 96-well plate. Acetylcholinesterase or butyrylcholinesterase was prepared at 0.5 U/ml, 50 μl was added to a 96-well plate, mixed with the aliquoted compound, and left for 10 minutes. The substrate, acetylthiocholine or butyrylthiocholine, was prepared at 0.4mg/ml, then 50 μl was added to a 96-well plate and left for 20 minutes. Dithionitrobenzoic acid (DTNB) was prepared at 1.2 mg/ml, then 50 μl was added to a 96-well plate and left for 10minutes.

Experiment [3] has as its target Acetylcholinesterase (AChE) (Homo sapiens, UniProt P22303). Briefly: Acetylcholinesterase inhibition efficiency (acetylthiocholine/DTNB absorbance). Here is the method:
as §1

[4] abbreviates: kynuramine substrate, potassium phosphate buffer pH 7.4, compound 0-200 μM, read-out: IC50 for MAOB.
Setting [5] is: 0.5 U/ml enzyme, butyrylthiocholine substrate, compound 0-200 μM, read-out: IC50 for BuChE.
Setting [6] is: 0.5 U/ml enzyme, acetylthiocholine substrate, compound 0-200 μM, read-out: IC50 for AChE.

Sequence of Acetylcholinesterase (AChE) (P22303 32-614, species assumed): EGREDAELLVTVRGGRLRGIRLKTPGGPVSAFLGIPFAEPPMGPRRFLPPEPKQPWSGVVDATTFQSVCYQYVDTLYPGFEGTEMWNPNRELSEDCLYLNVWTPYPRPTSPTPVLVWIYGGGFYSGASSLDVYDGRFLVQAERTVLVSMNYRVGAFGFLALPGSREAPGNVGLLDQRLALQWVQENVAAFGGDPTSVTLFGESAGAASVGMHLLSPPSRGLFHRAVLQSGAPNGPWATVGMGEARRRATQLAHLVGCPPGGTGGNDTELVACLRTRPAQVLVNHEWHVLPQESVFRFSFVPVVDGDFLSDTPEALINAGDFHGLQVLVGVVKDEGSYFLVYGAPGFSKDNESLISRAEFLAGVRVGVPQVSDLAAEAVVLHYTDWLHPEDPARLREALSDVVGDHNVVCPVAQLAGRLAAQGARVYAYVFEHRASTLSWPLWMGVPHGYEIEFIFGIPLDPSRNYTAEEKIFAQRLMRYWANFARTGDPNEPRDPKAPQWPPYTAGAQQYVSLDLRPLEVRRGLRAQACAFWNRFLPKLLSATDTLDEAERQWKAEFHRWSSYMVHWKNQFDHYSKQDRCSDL
Sequence of Butyrylcholinesterase (BuChE) (P06276 29-602): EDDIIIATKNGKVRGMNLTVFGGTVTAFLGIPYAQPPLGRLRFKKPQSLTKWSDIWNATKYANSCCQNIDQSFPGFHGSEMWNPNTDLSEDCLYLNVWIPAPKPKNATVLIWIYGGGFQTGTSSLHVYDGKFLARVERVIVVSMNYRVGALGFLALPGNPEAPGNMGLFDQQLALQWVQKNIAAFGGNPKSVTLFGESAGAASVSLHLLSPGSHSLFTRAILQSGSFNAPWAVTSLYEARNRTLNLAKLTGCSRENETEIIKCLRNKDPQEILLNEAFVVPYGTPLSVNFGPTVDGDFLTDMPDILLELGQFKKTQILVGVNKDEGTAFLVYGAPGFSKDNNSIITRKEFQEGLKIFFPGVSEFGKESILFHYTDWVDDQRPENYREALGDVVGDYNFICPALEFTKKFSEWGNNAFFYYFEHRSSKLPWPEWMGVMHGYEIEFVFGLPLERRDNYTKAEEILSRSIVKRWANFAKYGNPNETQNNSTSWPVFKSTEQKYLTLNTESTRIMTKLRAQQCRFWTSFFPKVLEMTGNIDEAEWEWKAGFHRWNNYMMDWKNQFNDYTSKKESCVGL

Consider `C=C(C)[C@@H]1CCC(C)=C[C@H]1c1c(O)cc(O)cc1C(C)=O` [compound 1p, 1-((1′R,2′R)-4,6-dihydroxy-5′-methyl-2′-(prop-1-en-2-yl)-1′,2′,3′,4′-tetrahydro-[1, 1′-biphenyl]-2-yl) ethan-1-one], for which the IC50 in experiment [1] (setting [4]) turned out to be 2.1 µM; in experiment [2] (setting [5]), 2 µM; in experiment [3] (setting [6]) it was 4.6 µM.

As for `C=C(C)[C@@H]1CCC(C)=C[C@H]1c1c(C)cc(O)cc1O` [compound 1c, (1′R,2′R)-5′,6-dimethyl-2′-(prop-1-en-2-yl)-1′,2′,3′,4′-tetrahydro-[1, 1′-biphenyl]-2,4-diol], the IC50 worked out at 24.8 µM in experiment [1], 1.7 µM in experiment [2] and 2.6 µM in experiment [3].

`C=C(C)[C@@H]1CCC(C)=C[C@H]1c1ccc(O)c(C(=O)O)c1O` [compound 1n, (1′R,2′R)-2,4-dihydroxy-5′-methyl-2′-(prop-1-en-2-yl)-1′,2′,3′,4′-tetrahydro-[1, 1′-biphenyl]-3-carboxylic acid]: the figures for the IC50 in experiment [1] (setting [4]), in experiment [2] (setting [5]) and in experiment [3] (setting [6]) were 30.7 µM, 13.3 µM and 10.6 µM, respectively.

In the case of `C=C(C)[C@@H]1CCC(C)=C[C@H]1c1c(O)cc(O)cc1Br` [compound 1e, (1′R,2′R)-6-bromo-5′-methyl-2′-(prop-1-en-2-yl)-1′,2′,3′,4′-tetrahydro-[1,1′-biphenyl]-2,4-diol], the IC50 was determined as 26.2 µM in experiment [1] (setting [4]), 9.3 µM in experiment [2] (setting [5]) and 20 µM in experiment [3].

On to `C=C(C)[C@@H]1CCC(C)=C[C@H]1c1ccc(O)c(Br)c1O` [compound 1m, (1′R,2′R)-3-bromo-5′-methyl-2′-(prop-1-en-2-yl)-1′,2′,3′,4′-tetrahydro-[1, 1′-biphenyl]-2,4-diol], for which the concentration for half-maximal inhibition (IC50) is 118 µM in experiment [1] (setting [4]), 44.6 µM in experiment [2] (setting [5]) and 42.6 µM in experiment [3].

Regarding `C=C(C)[C@@H]1CCC(C)=C[C@H]1c1c(O)cc(O)cc1CCc1ccccc1` [compound 1d, (1′R,2′R)-5′-methyl-6-phenethyl-2′-(prop-1-en-2-yl)-1′,2′,3′,4′-tetrahydro-[1, 1′-biphenyl]-2,4-diol], the IC50 turned out to be 2.6 µM in experiment [2] and 3.3 µM in experiment [3].

In the case of `C=C(C)[C@@H]1CCC(C)=C[C@H]1c1cc(C(=O)NCCc2ccc(OC)cc2)c(O)cc1O` [compound 1o, (1′R,2′R)-4,6-dihydroxy-N-(4-methoxyphenethyl)-5′-methyl-2′-(prop-1-en-2-yl)-1′, 2′,3′,4′-tetrahydro-[1,1′-biphenyl]-3-carboxamide], the figures for the 50% inhibitory concentration (IC50) in experiment [1] (setting [4]), in experiment [2] (setting [5]) and in experiment [3] (setting [6]) were 56.1 µM, 27.3 µM and 15.3 µM, respectively.

Take `C=C(C)[C@@H]1CCC(C)=C[C@H]1c1c(O)cc(O)cc1CCC` [compound 1b, (1′R,2′R)-5′-methyl-2′-(prop-1-en-2-yl)-6-propyl-1′,2′,3′,4′-tetrahydro-[1, 1′-biphenyl]-2,4-diol]: the values for the IC50 in experiment [1], in experiment [2] and in experiment [3] were 31.5 µM, 4 µM and 58.2 µM, respectively.

With `C=C(C)[C@@H]1CCC(C)=C[C@H]1c1c(O)cc(O)cc1C#N` [compound 1g, (1′R,2′R)-4,6-dihydroxy-5′-methyl-2′-(prop-1-en-2-yl)-1′,2′,3′,4′-tetrahydro-[1, 1′-biphenyl]-2-carbonitrile], the half-maximal inhibitory concentration (IC50) was determined as 61.1 µM in experiment [1] (setting [4]), 8.6 µM in experiment [2] (setting [5]) and 74 µM in experiment [3].

Regarding `C=C(C)[C@@H]1CCC(C)=C[C@H]1c1c(O)cc(O)cc1OC` [compound 1h, (1′R,2′R)-6-methoxy-5′-methyl-2′-(prop-1-en-2-yl)-1′,2′,3′,4′-tetrahydro-[1, 1′-biphenyl]-2,4-diol], the figures for the concentration for half-maximal inhibition (IC50) in experiment [1] (setting [4]), in experiment [2] (setting [5]) and in experiment [3] (setting [6]) were 35.8 µM, 55.3 µM and 78 µM, respectively.

In the case of `C=C(C)[C@H]1CCC(C)=C[C@@H]1c1c(O)cc(OC)c([C@@H]2C=C(C)CC[C@H]2C(=C)C)c1O` [compound 1k, (1R,1″S,2R,2″S)-6′-methoxy-5,5″-dimethyl-2,2″-di(prop-1-en-2-yl)-1, 1″,2,2″,3,3″,4,4″-octahydro-[1,1′:3′,1″-terphenyl]-2′,4′-diol], in experiment [3] (setting [6]), the IC50 is 5.3 µM.

For `C=C(C)[C@@H]1CCC(C)=C[C@H]1c1cc(C(=O)NCCc2ccc(O)cc2)c(O)cc1O` [compound 1q, (1′R,2′R)-4,6-dihydroxy-N-(4-hydroxyphenethyl)-5′-methyl-2′-(prop-1-en-2-yl)-1′, 2′,3′,4′-tetrahydro-[1,1′-biphenyl]-3-carboxamide], the IC50 was found to be 18.1 µM in experiment [1] (setting [4]), 3.3 µM in experiment [2] (setting [5]) and 7.3 µM in experiment [3].

On to `C=C(C)[C@@H]1CCC(C)=C[C@H]1c1c(O)c(C(C)=O)c(O)c([C@@H]2C=C(C)CC[C@H]2C(=C)C)c1O` [compound 1j, 1-((1R,1″R,2R,2″R)-2′,4′,6′-trihydroxy-5,5″-dimethyl-2,2″-di (prop-1-en-2-yl)-1,1″,2,2″,3,3″,4,4″-octahydro-[1,1′:3′,1″-terphenyl]-5′-yl)ethan-1-one], for which the IC50 in experiment [1] (setting [4]) was found to be 142 µM; in experiment [2] (setting [5]) it was 30.6 µM; in experiment [3] (setting [6]), 2 µM.

With `C=C(C)[C@@H]1CCC(C)=C[C@H]1c1cc(Cl)c(O)cc1O` [compound 1f, (1′R,2′R)-5-chloro-5′-methyl-2′-(prop-1-en-2-yl)-1′,2′,3′,4′-tetrahydro-[1, 1′-biphenyl]-2,4-diol], the IC50 in experiment [1] (setting [4]) was determined as 29.9 µM; in experiment [2] (setting [5]), 19.3 µM; in experiment [3], 20 µM.

As to `C=C(C)[C@@H]1CCC(C)=C[C@H]1c1ccc(O)c(C(C)=O)c1O` [compound 1i, 1-((1′R,2′R)-2,4-dihydroxy-5′-methyl-2′-(prop-1-en-2-yl)-1′,2′,3′,4′-tetrahydro-[1, 1′-biphenyl]-3-yl)ethan-1-one], the IC50 in experiment [1] (setting [4]) came out at 16.4 µM; in experiment [2] (setting [5]) it was 7.3 µM; in experiment [3] (setting [6]), 6.6 µM.

Turning to `C=C(C)[C@@H]1CCC(C)=C[C@H]1c1c(O)cc(O)c(C(C)=O)c1O` [compound 1l, 1-((1′R,2′R)-2,4,6-trihydroxy-5′-methyl-2′-(prop-1-en-2-yl)-1′,2′,3′,4′-tetrahydro-[1,1′-biphenyl]-3-yl)ethan-1-one], the IC50 in experiment [1] (setting [4]) turned out to be 7.99 µM; in experiment [2] (setting [5]), 6.6 µM; in experiment [3] (setting [6]), 23.3 µM.

Turning to `C=C(C)[C@@H]1CCC(C)=C[C@H]1c1c(O)cc(O)cc1CCCCC` [compound 1a, (1′R,2′R)-5′-methyl-6-pentyl-2′-(prop-1-en-2-yl)-1′,2′,3′,4′-tetrahydro-[1, 1′-biphenyl]-2,4-diol], the IC50 in experiment [1] is 44 µM; in experiment [2] it was 1.7 µM; in experiment [3], 3.1 µM.
